Measurements from patent US11931412B2, “JAK1 inhibitors and uses thereof” (Washington University, priority 2016, dated 2024).
“Also recorded” adds a separate entry of the source.

How the values were obtained:
AD patients = details: cited from earlier work
patients with CIP = experiment: NRS itch scoring of CIP patients under treatment
mouse DRG neurons = experiment: Ratiometric calcium imaging of cultured murine DRG neurons; type: cell-based; details: for responsive neurons as a percentage of total mouse DRG neurons: cytokines 300 nM, histamine 50 μM, responsive = change in fluorescence ratio >10% of baseline; for calcium response of DRG neurons to stimulation: ex vivo stimulation, recombinant murine cytokine 300 nM; for cytokine-responsive neurons that also responded to IL-31 or histamine: serial stimulation with the cytokine, then IL-31 and histamine
Protocol: Murine DRG neurons were isolated and cultured using a previously published protocol with slight modification (Malin et al., 2007). Briefly, laminectomies were performed on mice and bilateral DRG were removed. After removal of connective tissues, DRG were transferred to 1 mL Ca^2+/Mg^2+-free Hank's Balanced Salt Solution (HBSS) containing 1 μL saturated NaHCO3, 0.35 mg L-cysteine, and 20 U papain (Worthington) and incubated at 37° C. for 20 min. The suspension was centrifuged, and the supernatant was removed and replaced with 1 mL Ca^2+/Mg^2+-free HBSS containing 3.75 mg collagenase type II (Worthington) and 7.5 mg dispase (Worthington) and incubated at 37° C. for 20 min. After digestion, neurons were gently triturated, pelleted, and then resuspended in Neurobasal-A medium containing 2% B-27 supplement (Gibco), 100 U/mL penicillin plus 100 μg/mL streptomycin (Sigma), 100 ng/mL nerve growth factor (Sigma), and 10% heat-inactivated FBS (Sigma). Neurons were then plated on a 12 mm glass coverslip pre-coated with poly-L-lysine (Sigma) and laminin (Sigma) and cultured under a humidified atmosphere of 5% CO2 at 37° C. for 18-24 hours before use.
Cultured DRG neurons were loaded with 4 μM Fura-2 AM (Life Technologies) in overnight DRG culture medium at 37° C. for 45 minutes. Cells were then washed three times and incubated in calcium imaging buffer (130 mM NaCl, 3 mM KCl, 2.5 mM CaCl2, 0.6 mM MgCl2, 10 mM HEPES, 10 mM glucose, 1.2 mM NaHCO3, pH 7.45) at room temperature for 30 minutes before use. All recombinant murine cytokines (IL-4, IL-5, and IL-13: Peprotech, IL-31: Bristol-Myers Squibb) were used at 300 nM, while histamine (Sigma) and capsaicin (Sigma) were used at 50 μM and 300 nM, respectively. Only sensory neurons that responded to a final challenge of 100 mM KCl were used in analyses. Fluorescence was recorded at 340 nm and 380 nm excitation wavelengths (F340, F380) using an inverted Nikon Ti-E microscope with NIS-Elements imaging software (Nikon Instruments). Fluorescence ratios (F340/F380) were normalized to baseline and used to reflect changes in intracellular Ca^2+ and neuronal activation upon stimulation. […] Data were derived from two to three independent experiments.

wild type (WT) mice = experiment: Topical MC903 treatment versus vehicle (AD-like inflammation and itch); type: in vivo, mouse; details: daily topical to ears, compared to vehicle (EtOH)
Protocol: (§1) For induction of AD-like inflammation and itch, mice were topically treated once daily with 2 nmol of MC903 (calcipotriol, Tocris Bioscience) for 7 days or 1 nmol of MC903 for 12 days on both ears in 20 μL of ethanol (vehicle) as previously described (Kim et al., 2013a, 2014, Siracusa et al., 2011, 2013b). Ear thickness measurements were performed daily with dial calipers as previously described (Kim et al., 2013a, 2014). At the end of the MC903 treatment, murine ear skin tissues were fixed in 4% paraformaldehyde (PFA) and embedded in paraffin before sectioning and staining with Hematoxylin & Eosin (H&E). Histology score was determined by the following formula using ImageJ analysis software (NIH) as previously described: (total number of lymphocytes per high power field (HPF)+thickness of the epidermis measured in microns from the basement membrane to the top of the stratum corneum) divided by 100 (Kim et al., 2014). All images were captured with a NanoZoomer 2.0-HT System (Hamamatsu). Murine disease and behavioral assessment data (below) were derived from two to three independent experiments. For behavioral assessments, mice were first acclimated to the recording room and behavior chambers at least one day prior to testing. On the day of testing, mice were again acclimated to the recording room and behavior chambers and then video recorded. The video recordings were then manually scored for number of scratching bouts per 30 minute block. One scratching bout was defined as one instance of lifting the hind paw from the floor, scratching, and returning the paw to the floor or placing the paw in the animal's mouth. All behavioral tests were performed on sex- and age-matched adult mice (8-12 weeks old).

CIP patient (Case 2) = experiment: Clinical history of CIP patient Case 2 (prior treatment); type: in vivo, human; details: course of oral prednisone prescribed for polymyalgia rheumatica
Protocol: This example describes four elderly CIP patients with evidence of marked immune dysregulation after exclusion of other cutaneous and systemic causes of pruritus.
TABLE 2 Legend: (a) Average and peak Numerical Rating Scale (NRS) itch scores at the time of presentation to our clinic are noted, respectively. (b) A thorough workup was performed to establish the diagnosis of CIP by exclusion of other cutaneous and systemic causes of pruritus, including psychiatric and neurologic conditions, renal failure, biliary dysfunction, thyroid abnormalities, HIV/AIDS, hepatitis B, and hepatitis C. […] (d) Outside of two episodes of septic arthritis arising from knee replacement surgery, the patient had no history of persistent or recurrent infections, autoimmunity, or malignancy.

MC903-treated WT mice = experiment: Pharmacologic JAK inhibition in MC903-induced AD-associated itch model; type: in vivo, mouse
Protocol: as §1, with “old). Stock ruxolitinib (Selleck Chemicals) solutions were prepared in DMSO (Sigma) per the manufacturer's instructions. For systemic treatments, mice treated twice daily with 100 μg ruxolitinib diluted in 100 μl PBS by intraperitoneal (i.p.) injection. For intrathecal (i.t.) ruxolitinib treatments, mice were injected 24 hours before behavioral assays with 10 μg ruxolitinib diluted in 10 μl PBS. Control mice were injected with appropriate vehicle controls (DMSO in PBS) of equivalent volumes.” for “old).”

[1] = i.p. 100 μg twice daily during MC903 treatment, Day 7

For `C[C@@H]1CCN(C(=O)CC#N)C[C@@H]1N(C)c1ncnc2[nH]ccc12` [tofacitinib], the “itch symptoms in AD patients” value (AD patients; pilot studies and Phase II clinical trials) is given as “rapid and significant reduction”, the “NRS itch score / itch symptoms” value (patients with CIP; CIP patients (N=5), 5 mg by mouth twice daily, one month) is given as “marked improvement; also recorded: improved significantly; also recorded: dramatic improvement” and the “daily itch scores (NRS), single subject” value (patients with CIP; one CIP subject over 70 days, cyclosporine alone, then switched to JAK inhibitor) is given as “significant improvement”.

With “IL-4: recombinant murine IL-4 (Peprotech)” the “responsive neurons as a percentage of total mouse DRG neurons” value (“responsive neurons as a percentage” for short) (mouse DRG neurons) was 4.1±0.5%, the “calcium response of DRG neurons to stimulation” value (“calcium response of DRG neurons” for short) (mouse DRG neurons) was “rapid rise of intracellular calcium in a subset of neurons” and the “cytokine-responsive neurons that also responded to IL-31 or histamine” value (mouse DRG neurons) was 88.9%.

For `C=C1/C(=C\C=C2/CCC[C@]3(C)[C@@H]([C@H](C)/C=C/[C@@H](O)C4CC4)CC[C@@H]23)C[C@@H](O)C[C@@H]1O` [MC903, calcipotriol], the “histologic score of inflammation” value (wild type (WT) mice) was “higher”, the “itch phenotype by scratching bouts over time” value (wild type (WT) mice) was “marked chronic itch phenotype” and the “skin inflammation measured by ear skin thickening and histologic features” value (wild type (WT) mice) was “robust skin inflammation”.

In the case of `C[C@]12C=CC(=O)C=C1CC[C@@H]1[C@@H]2C(=O)C[C@@]2(C)[C@H]1CC[C@]2(O)C(=O)CO` [prednisone], the muscle weakness (CIP patient (Case 2)) is reported as “improved” and the pruritus (CIP patient (Case 2)) is reported as “did not resolve”.

For `N#CC[C@H](C1CCCC1)n1cc(-c2ncnc3[nH]ccc23)cn1` [ruxolitinib], the ear skin thickening (MC903-treated WT mice; [1]) was “statistically significant, but only slight, reduction”, the “histologic parameters of disease” value (MC903-treated WT mice; [1]) was “statistically significant, but only slight, reduction” and the scratching bouts (MC903-treated WT mice; [1]) was “significantly reduced”. The “peripheral skin inflammation (ear thickness, histopathology, histology score)” value (MC903-treated WT mice; single intrathecal (i.t.) injection 10 μg) was “no effect” and the scratching bouts (MC903-treated WT mice; single intrathecal (i.t.) injection 10 μg, 24 hours before behavioral assay) was “marked reduction”.

For “dupilumab: an anti-IL-4Rα monoclonal antibody”, the “disease and itch severity in AD patients” value (AD patients; Phase II and III clinical trials) is listed as “remarkable improvement”.

For `NCCc1c[nH]cn1` [histamine], the “responsive neurons as a percentage” value (mouse DRG neurons) was roughly 25%.

B1: IL-31: recombinant murine IL-31 (Bristol-Myers Squibb), known cytokine pruritogen (protein, UniProt Q6EAL8 24-163, looked up)
Interleukin-31: TCSLSFGAPISKEDLRTTIDLLKQESQDLYNNYSIKQASGMSADESIQLPCFSLDREALTNISVIIAHLEKVKVLSENTVDTSWVIRWLTNISCFNPLNLNISVPGNTDESYDCKVFVLTVLKQFSNCMAELQAKDNTTC
In the case of B1, the “responsive neurons as a percentage” value (mouse DRG neurons) is reported as “approximately 5%”.

B2: IL-13: recombinant murine IL-13 (Peprotech) (protein, UniProt P20109 19-131, looked up)
Interleukin-13: APGPVPRSVSLPLTLKELIEELSNITQDQTPLCNGSMVWSVDLAAGGFCVALDSLTNISNCNAIYRTQRILHGLCNRKAPTTVSSLPDTKIEVAHFITKLLSYTKQLFRHGPF
With B2 the “responsive neurons as a percentage” value (mouse DRG neurons) was 3.3±0.8%, the “calcium response of DRG neurons” value (mouse DRG neurons) was “rapid rise of intracellular calcium in a subset of neurons” and the “cytokine-responsive neurons that also responded to IL-31 or histamine” value (mouse DRG neurons) was 75.0%.

B3: IL-5: recombinant murine IL-5 (Peprotech) (protein, UniProt P04401 21-133, looked up)
Interleukin-5: MEIPMSTVVKETLTQLSAHRALLTSNETMRLPVPTHKNHQLCIGEIFQGLDILKNQTVRGGTVEMLFQNLSLIKKYIDRQKEKCGEERRRTRQFLDYLQEFLGVMSTEWAMEG
For B3, the “calcium response of DRG neurons” value (mouse DRG neurons) was “no responses; also recorded: does not activate”.
